# Experiments:
# FLK-1 receptor = experiment: FLK-1 Assay (cellular/catalytic ELISA, VEGF-stimulated phosphotyrosine); type: cell-based; parameters: concentration or dose not given beside the values
# In short: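 Receptor phosphotyrosine ELISA: Flk-1-expressing NIH3T3 C7#3 cells, starved overnight in 0.1% FBS medium, received compound (1:200 final dilution, 0.5% DMSO) for 2 h at 37 °C, then VEGF. Anti-FLK-1-captured receptor was probed with anti-phosphotyrosine UB40 and peroxidase/ABTS read-out, relative to cells without compound.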
# PDGF-R = PDGF-R Assay (cellular ELISA, U1242 cells); type: cell-based; parameters: concentration or dose not given beside the values
# In short: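 Cellular ELISA for receptor autophosphorylation: after 2 hr test-compound treatment of serum-free U1242 cells at 37°C, ligand is added for 5–10 min, cells are lysed (HNTG) and receptor captured by specific antibody. Anti-phosphotyrosine plus secondary antibody with ABTS colour read at 410/630 nm, compared with compound-free control cells.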
Structure (SMILES),Flk Kinase % Inhibition (P.110) (FLK-1 receptor),PDGF Kinase % Inhibition (P.119) (PDGF-R)
O=C1Nc2ccc(S(=O)(=O)Nc3ccc(C(F)(F)F)cc3)cc2C1=Cc1ccccc1C(F)(F)F [10736/E03],17.7%,96.1%
Cc1cccc(C=C2C(=O)Nc3ccc(S(=O)(=O)Nc4ccc(C(F)(F)F)cc4)cc32)c1 [10736/E04],22.6%,24.6%
Cc1ccc(C=C2C(=O)Nc3ccc(S(=O)(=O)Nc4ccc(C(F)(F)F)cc4)cc32)cc1 [10736/E05],30.2%,18.5%
O=C1Nc2ccc(S(=O)(=O)Nc3ccc(C(F)(F)F)cc3)cc2C1=Cc1cccc(Cl)c1 [10736/E06],20.1%,10.6%
O=C1Nc2ccc(S(=O)(=O)Nc3ccc(C(F)(F)F)cc3)cc2C1=Cc1cccc(F)c1 [10736/E07],15.3%,18.5%
O=C1Nc2ccc(S(=O)(=O)Nc3ccc(C(F)(F)F)cc3)cc2C1=Cc1ccccc1F [10736/E08],19.3%,7.9%
CCc1ccc(C=C2C(=O)Nc3ccc(S(=O)(=O)Nc4ccc(C(F)(F)F)cc4)cc32)cc1 [10736/E09],14.1%,−0.4%
COc1cccc(C=C2C(=O)Nc3ccc(S(=O)(=O)Nc4ccc(C(F)(F)F)cc4)cc32)c1 [10736/E10],27.2%,26.8%
O=C1Nc2ccc(S(=O)(=O)Nc3ccc(C(F)(F)F)cc3)cc2C1=Cc1ccccc1Cl [10736/E11],20.5%,0.9%
O=C1Nc2ccc(S(=O)(=O)N3CCOCC3)cc2C1=Cc1ccc(Cl)cc1 [10736/F02],23.9%,−14.4%
O=C1Nc2ccc(S(=O)(=O)N3CCOCC3)cc2C1=Cc1ccccc1C(F)(F)F [10736/F03],16.6%,−3.0%
Cc1cccc(C=C2C(=O)Nc3ccc(S(=O)(=O)N4CCOCC4)cc32)c1 [10736/F04],16.5%,3.6%
Cc1ccc(C=C2C(=O)Nc3ccc(S(=O)(=O)N4CCOCC4)cc32)cc1 [10736/F05],15.1%,−4.8%
O=C1Nc2ccc(S(=O)(=O)N3CCOCC3)cc2C1=Cc1cccc(Cl)c1 [10736/F06],14.5%,12.3%
O=C1Nc2ccc(S(=O)(=O)N3CCOCC3)cc2C1=Cc1cccc(F)c1 [10736/F07],16.6%,−4.3%
O=C1Nc2ccc(S(=O)(=O)N3CCOCC3)cc2C1=Cc1ccccc1F [10736/F08],7.4%,−20.1%
CCc1ccc(C=C2C(=O)Nc3ccc(S(=O)(=O)N4CCOCC4)cc32)cc1 [10736/F09],24.0%,2.7%

# — patent US20020026053A1, “Novel 3-(substituted) -2- indolinones compounds and use thereof as inhibitors of protein kinase activity” (priority 1997, published 2002)
